Experimental data reported in patent publication US8314139B2, “Toluene sulfonic acid salt of a therapeutic compound and pharmaceutical compositions thereof” (Pfizer Inc., priority 2007, dated 2012).
Counter-ions that a name gives are not always drawn.

Experiments:
[1] = Aqueous solubility (RP-HPLC after temperature cycling); assay type: physicochemical; details: for solubility at 25 h: thermodynamic from solid
Method: The following information was determined in regard of aqueous solubility. […] These values represent the solubility of the crystalline compound determined via RP-HPLC analysis after subjecting the drug media mixture to a temperature cycling program (40° C. for 8 hours, 15° C. for 5 hours, and 25° C. for 12 hours).

[2] = Hygroscopicity by dynamic vapor sorption (DVS); assay type: physicochemical
Method: Hygroscopicity was assessed using a dynamic vapor sorption technique in which an accurately weighed sample is subjected to progressively changing water vapor pressure while simultaneously recording the weight change. The experiment is conducted isothermally at 25° C.
FIG. 3 provides a moisture sorption isotherm of the tosylate salt of trans-N-ethyl-3-fluoro-3-[3-fluoro-4-(pyrrolidin-1-ylmethyl)phenyl]cyclobutanecarboxamide, with absorption as the (♦) curve and desorption as the (▪) curve, plotting percent change in weight as a function of relative humidity, using the kinetic flow through method (8.1 mg sample, 25° C.).
During the initial drying cycle (25° C., 1% RH), less than 0.1% weight loss was observed, which is consistent with an anhydrous non-hygroscopic form. An approximate 0.06% increase in weight was detected by DVS analysis when a sample was exposed to relative humidities from 5% to 90% at 25° C. The desorption phase mimicked the sorption phase when the relative humidity was decreased to 5% (see FIG. 3). Additionally, the powder x-ray diffraction pattern for the sample after hygroscopicity testing matched the pattern of the sample prior to that testing.

- solubility at 25 h ([1]; 25 °C, fassif, 0.1M phosphate buffered saline with 0.5 weight percent sodium tauracholate/phosphatidyl choline salts, final pH 6.5, temperature cycling): > 11 mg/mL
- solubility at 25 h ([1]; 25 °C, unbuffered water, final pH 3.8, temperature cycling): 23.6 mg/mL
- solubility at 25 h ([1]; aqueous buffer, 0.1M phosphate buffered saline, final pH 6.5, crystalline compound, temperature cycling 40/15/25° C.): > 10 mg/mL
- aqueous solubility (in words) ([1]; summary statement): high aqueous solubility
- weight loss during initial drying cycle ([2]; 25° C., 1% RH): less than 0.1%
- increase in weight by DVS analysis ([2]; relative humidities from 5% to 90% at 25° C.): ~0.06%
- hygroscopicity (in words) ([2]; summary statement): only slightly hygroscopic
Structure (SMILES): CCNC(=O)[C@H]1C[C@@](F)(c2ccc(CN3CCCC3)c(F)c2)C1 [tosylate salt, (trans)-3-fluoro-3-[3-fluoro-4-(pyrrolidin-1-ylmethyl)phenyl]cyclobutanecarboxylic acid ethylamide tosylate salt]
